Assay results from PubChem BioAssay AID1117337 (Cheminformatics & Chemogenomics Research Group (CCRG), …, 2015).
Activity calls are given as the source filed them. How the calls were made is not given here.

system: ADSC/ECFC co-culture, VEGF-stimulated, CD31 tube area; assay: inhibition of endothelial tube formation, dose response, imaging, VEGF stimulation, CD31 staining, tube area, IC50 (AID 1117337)

Compound	IC50
CCCCCCCC[N+](C)(C)CCCCCCCC	1.39 µM
CCCCCCCCCCCCCCCC[N+](C)(C)CCN(Cc1ccc(OC)cc1)c1ncccn1	3.07 µM
CCCCCCCCOc1ccccc1C(=O)Nc1ccc(C(=O)OCC[N+](C)(CC)CC)cc1	> 10 µM (inactive)
COc1ccc2cc1Oc1ccc(cc1)C[C@H]1c3c(cc4c(c3Oc3cc5c(cc3OC)CCN(C)[C@@H]5C2)OCO4)CCN1C	3.02 µM
Cc1ccc2nc(N)[nH]c(=O)c2c1Sc1ccncc1	7.37 µM (inactive)
CN(C)c1ccc(C(=C2C=CC(=[N+](C)C)C=C2)c2ccccc2)cc1	0.0605 µM
O=C(Nc1ccc(S(=O)(=O)N2CCOCC2)cc1)c1cc(Cl)ccc1NS(=O)(=O)c1ccc(Cl)s1	> 10 µM (inactive)
CN1CCC[C@@H]1CCO[C@](C)(c1ccccc1)c1ccc(Cl)cc1	> 10 µM (inactive)
O=C1CC[C@H](C(=O)N2CCCCC2)N1	> 10 µM (inactive)
Cc1cccc(C)c1NC(=O)CC12CCCN1CCC2	> 10 µM (inactive)
NC(=O)n1c(O)c(C(=O)c2cccs2)c2cc(Cl)ccc21	> 10 µM (inactive)
O=C(NC(=O)c1c(F)cccc1F)Nc1ccc(Cl)c(Oc2ncc(C(F)(F)F)cc2Cl)c1	> 10 µM (inactive)
O=C1NCN(c2ccccc2)C12CCN(CCCC(c1ccc(F)cc1)c1ccc(F)cc1)CC2	> 10 µM (inactive)
O=C(O)c1ccc2[nH]cc(CCCCN3CC=C(c4ccccc4)CC3)c2c1	> 10 µM (inactive)
CC(C)OC(=O)OCOP(=O)(CO[C@H](C)Cn1cnc2c(N)ncnc21)OCOC(=O)OC(C)C	3.84 µM
CCCCc1ccc2nc(NC(=O)OC)[nH]c2c1	0.053 µM
CCCCc1oc2ccc(NS(C)(=O)=O)cc2c1C(=O)c1ccc(OCCCN(CCCC)CCCC)cc1	2.75 µM
CC(C(O)c1ccccc1)N(C)C/C=C/c1ccccc1 (stereo not drawn)	> 10 µM (inactive)
NC1=NCC2c3ccccc3Cc3ccccc3N12 (stereo not drawn)	> 10 µM (inactive)
CC(C)c1c(C(=O)Nc2ccccc2)c(-c2ccccc2)c(-c2ccc(F)cc2)n1CC[C@@H](O)C[C@@H](O)CC(=O)O	> 10 µM (inactive)
N/C(=N\N=C\c1ccc(Cl)cc1)N/N=C/c1ccc(Cl)cc1	> 10 µM (inactive)
CCOC(=O)[C@H](CCc1ccccc1)N[C@@H](C)C(=O)N1C(=O)N(C)C[C@H]1C(=O)O	> 10 µM (inactive)
CCCCN(CCCC)CCC(O)c1cc2c(Cl)cc(Cl)cc2c2cc(C(F)(F)F)ccc12 (stereo not drawn)	> 10 µM (inactive)
CC(C)CCCC(C)NCCC(C)C (stereo not drawn)	> 10 µM (inactive)
O=C(O)CCCc1ccc(N(CCCl)CCCl)cc1	1.24 µM

Compound	IC50
Cc1cc(=O)c2c(O)c3c(O)cc(=O)c4c3c3c(cc(O)c1c23)C(C)(C)C=4O	0.101 µM
Nc1cc(C(F)(F)F)ccc1S	> 10 µM (inactive)
O=C(O)CCC(=O)OC[C@@H](NC(=O)C(Cl)Cl)[C@H](O)c1ccc([N+](=O)[O-])cc1	> 10 µM (inactive)
CCCCCCCCCCCCCCNCCO	> 10 µM (inactive)
CN(C)CCCN1c2ccccc2Sc2ccc(Cl)cc21	> 10 µM (inactive)
Cc1cc2nc3ccc(=[N+](C)C)cc-3sc2cc1N	2.45 µM
O[C@@H](CNC[C@H](O)[C@H]1CCc2cc(F)ccc2O1)[C@@H]1CCc2cc(F)ccc2O1	> 10 µM (inactive)
CCCCC(CC)COC(=O)CC(C(=O)OCC(CC)CCCC)S(=O)(=O)O (stereo not drawn)	> 10 µM (inactive)
Cc1cccc(Nc2cc(Cl)nc(SCC(=O)O)n2)c1C	> 10 µM (inactive)
CC(C)=CCNc1ncnc2c1ncn2[C@@H]1O[C@H](CO)[C@@H](O)[C@H]1O	2.66 µM
C/C=C(/C(=C/C)c1ccc(OC(C)=O)cc1)c1ccc(OC(C)=O)cc1	> 10 µM (inactive)
COc1ccc(-c2ccc3cc(C(=O)O)ccc3c2)cc1C12CC3CC(CC(C3)C1)C2	0.524 µM
Cc1c(C)c2c(c(C)c1O)CC[C@@](C)(CCC[C@H](C)CCC[C@H](C)CCCC(C)C)O2	> 10 µM (inactive)
O=C(c1ccc(F)cc1)C1CCN(CCn2c(=O)[nH]c3ccccc3c2=O)CC1	> 10 µM (inactive)
CCCOc1ccc2nc(NC(=O)OC)[nH]c2c1	0.328 µM
CC(CC=O)CCCC(C)(C)O (stereo not drawn)	> 10 µM (inactive)
Nc1ncn([C@@H]2O[C@H](CO)[C@@H](O)[C@H]2O)c(=O)n1	> 10 µM (inactive)
O=C(OCCO)c1ccccc1O	> 10 µM (inactive)
Cn1ccc2cc3c(cc21)CCN3C(=O)Nc1cccnc1	> 10 µM (inactive)
CO[C@H]1O[C@@H]2O[C@@]3(C)CC[C@H]4[C@H](C)CC[C@@H]([C@@H]1C)[C@@]24OO3	> 10 µM (inactive)
CCCCCCNC(=O)n1cc(F)c(=O)[nH]c1=O	4.49 µM
COc1ccc([C@@H]2Sc3ccccc3NC(=O)[C@@H]2O)cc1	> 10 µM (inactive)
CC1=C(C(=O)OC(C)C)C(c2cccc([N+](=O)[O-])c2)C(C(=O)OC2CN(C(c3ccccc3)c3ccccc3)C2)=C(N)N1 (stereo not drawn)	3.58 µM
CCCCC[C@@H](O)CC[C@H]1[C@@H]2Cc3cccc(OCC(=O)O)c3C[C@@H]2C[C@@H]1O	> 10 µM (inactive)
CCCCCCCCCCCC(=O)[O][Sn]([CH2]CCC)([CH2]CCC)[O]C(=O)CCCCCCCCCCC	2.01 µM

Compound	IC50
Cc1c(C)c2c(c(C)c1O)CCC(C)(COc1ccc(CC3SC(=O)NC3=O)cc1)O2 (stereo not drawn)	5.14 µM (inactive)
Cc1ccc(O)cc1	> 10 µM (inactive)
O=C1c2ccccc2C(=O)C1C(=O)C(c1ccccc1)c1ccccc1	> 10 µM (inactive)
CC(=O)Oc1ccc(C2(c3ccc(OC(C)=O)cc3)Oc3ccccc3NC2=O)cc1	2.27 µM
CCC(C(=O)OCCOCCN(CC)CC)c1ccccc1 (stereo not drawn)	> 10 µM (inactive)
COP(=S)(OC)Oc1ccc(Sc2ccc(OP(=S)(OC)OC)cc2)cc1	> 10 µM (inactive)
CCN(CC)C(=O)c1cccnc1	> 10 µM (inactive)
COc1ccc(Cc2nccc3cc(OC)c(OC)cc23)cc1OC	7.8 µM (inactive)
CCCCCCCCCCCC[N+](C)(C)Cc1ccccc1	> 10 µM (inactive)
O=C1c2c(O)ccc(O)c2C(=O)c2c(NCCNCCO)ccc(NCCNCCO)c21	0.0044 µM
CNS(=O)(=O)CCc1ccc2[nH]cc(C3CCN(C)CC3)c2c1	> 10 µM (inactive)
CCC=CCC=CCC=CCCCCCCCC(=O)O	> 10 µM (inactive)
Nc1nc(=O)n([C@@H]2O[C@H](CO)[C@@H](O)[C@@H]2F)cc1I	3.47 µM
O=C(CCBr)N1CCN(C(=O)CCBr)CC1	1.37 µM
Nc1nc(F)nc2c1ncn2[C@@H]1O[C@H](CO)[C@@H](O)[C@@H]1O	8.45 µM (inactive)
CC(C)(C)CC(C)(C)c1ccc(O)cc1	> 10 µM (inactive)
COc1cccc2c1C(=O)c1c(O)c3c(c(O)c1C2=O)C[C@@](O)(C(=O)CO)CC3OC1CC(N2CCOC(OC)C2)C(O)C(C)O1 (stereo partly drawn)	0.003 µM
CC(C)(C)C1CCC(CC2=C(O)c3ccccc3C(=O)C2=O)CC1 (stereo not drawn)	1.96 µM
COC(=O)Nc1nc2ccc(C(=O)c3ccccc3)cc2[nH]1	0.37 µM
O=C(O)C1CCC1	> 10 µM (inactive)
C=CC(C)(O)CCC=C(C)CCC=C(C)C (stereo not drawn)	> 10 µM (inactive)
CSc1ccc(/C=C2/C(C)=C(CC(=O)O)c3cc(F)ccc32)cc1	> 10 µM (inactive)
O=c1[nH]sc2cc(Cl)ccc12	> 10 µM (inactive)
